In article PMC9502897, “Design, Synthesis and Structure—Activity Relationships of Phenylalanine-Containing Peptidomimetics as Novel HIV-1 Capsid Binders Based on Ugi Four-Component Reaction” (Molecules, 2022):

Tests used:
[1] = system: HIV-1; assay: Anti-HIV-1 activity in MT-4 cells (MTT method); type: cell-based; conditions: for EC50: MT-4 cells, 50% protection against HIV-induced cytopathicity, MTT method; for anti-HIV activity: R2 1-methylnaphthalene replaced by 2-methylnaphthalene, HIV-1/HIV-2, MT-4 cells
Experimental: (§1) The evaluation of the antiviral activity of the compounds against HIV in MT-4 cells was performed using the MTT assay as described below. Stock solutions (10 × final concentration) of test compounds were added in 25 μL volumes to two series of triplicate wells to allow simultaneous evaluation of their effects on mock- and HIV-infected cells at the beginning of each experiment. Serial 5-fold dilutions of test compounds were made directly in flat-bottomed 96-well microtiter trays using a Biomek 3000 robot (Beckman Instruments, Fullerton, CA). Untreated HIV- and mock-infected cell samples were included as controls. HIV stock ([…]) at 100–300 CCID50 (50% cell culture infectious doses) or culture medium was added to either the infected or mock-infected wells of the microtiter tray. Mock-infected cells were used to evaluate the effects of the test compound on uninfected cells to assess the test compounds’ cytotoxicity. Exponentially growing MT-4 cells were centrifuged for 5 min at 220 g, and the supernatant was discarded. The MT-4 cells were resuspended at 6 × 10^5 cells/mL, and 50 μL volumes were transferred to the microtiter tray wells. Five days after infection, the viability of mock- and HIV-infected cells was examined spectrophotometrically using the MTT assay. The MTT assay is based on the reduction of yellow-colored 3-(4,5-dimethylthiazol-2-yl)-2,5-diphenyltetrazolium bromide (MTT) (Acros Organics) by mitochondrial dehydrogenase activity in metabolically active cells to a blue-purple formazan that can be measured spectrophotometrically. The absorbances were read in an eight-channel computer-controlled photometer (Infinite M1000, Tecan) at two wavelengths (540 and 690 nm). All data were calculated using the median absorbance value of three wells.

[2] = system: HIV-2; assay: Anti-HIV-2 activity in MT-4 cells (MTT method); type: cell-based
Experimental: as §1

[3] = system: MT-4 cells; assay: in vitro
Experimental: as §1

[4] = Cytotoxicity in mock-infected MT-4 cells (MTT method); conditions: human
Experimental: as §1

[5] = metabolic stability; cited from earlier work
[6] = system: HIV; conditions: moderate activity; cited from earlier work
[7] = molecular target: HIV-1 NL4-3 CA hexamer (Human immunodeficiency virus type 1 group M subtype B, UniProt P12493, A146C/E177C/M317A/W316A); assay: SPR binding to disulfide-stabilized NL4-3 CA hexamer
[8] = molecular target: T1, HIV-1 NL4-3 CA monomer (Human immunodeficiency virus type 1 group M subtype B, UniProt P12493); assay: biochemical; type: binding; conditions: SPR
T1 construct: the HIV-1 NL4-3 capsid protein constructs; His6 (C); made in house; host or cells: E. coli BL21-Codon Plus (DE3)-RIL

[9] = Human immunodeficiency virus 1, MT4
[10] = Human immunodeficiency virus 2, MT4, 50% protection against HIV-induced cytopathicity
[11] = 50% protection against HIV-induced cytopathicity

`COc1ccc(N(C)C(=O)[C@H](Cc2cc(F)cc(F)c2)NC(=O)CN(Cc2ccc(F)cc2)C(=O)Cc2cccc3ccccc23)cc1` [I-8, (S)-3-(3,5-difluorophenyl)-2-(2-(N-(4-fluorobenzyl)-2-(naphthalen-1-yl)acetamido)acetamido)-N-(4-methoxyphenyl)-N-methylpropanamide] showed an EC50 [1, 9] greater than 191 µM, an EC50 [2, 10] of 5.87 ± 1.79 µM and a CC50 ([3]; human, 5 days) greater than 191 µM.

`COc1ccc(N(C)C(=O)[C@H](Cc2cc(F)cc(F)c2)NC(=O)CN(Cc2ccccc2)C(=O)Cc2c(C)[nH]c3ccccc23)cc1` [I-21, (S)-2-(2-(N-benzyl-2-(2-methyl-1H-indol-3-yl)acetamido)acetamido)-3-(3,5-difluorophenyl)-N-(4-methoxyphenyl)-N-methylpropanamide] showed an EC50 [1, 9] of 2.77 ± 0.77 µM, an EC50 [2, 10] of 6.52 ± 0.6 µM and a CC50 ([3]; human, 5 days) of 28.6 ± 0.86 µM.

`COc1ccc(N(C)C(=O)[C@H](Cc2cc(F)cc(F)c2)NC(=O)CN(CC2CCCCC2)C(=O)Cn2nc(C(F)(F)F)cc2C)cc1` [I-20, (S)-2-(2-(N-(cyclohexylmethyl)-2-(5-methyl-3-(trifluoromethyl)-1H-pyrazol-1-yl)acetamido)acetamido)-3-(3,5-difluorophenyl)-N-(4-methoxyphenyl)-N-methylpropanamide] gave an EC50 [1, 9] of 30.3 ± 3.24 µM, an EC50 [2, 10] of 24.9 ± 12 µM and a CC50 ([3]; human, 5 days) of 45.7 ± 5.36 µM.

`COc1ccc(N(C)C(=O)[C@H](Cc2cc(F)cc(F)c2)NC(=O)CN(Cc2ccc(F)cc2)C(=O)Cc2c(C)[nH]c3ccccc23)cc1` [I-7, (S)-3-(3,5-difluorophenyl)-2-(2-(N-(4-fluorobenzyl)-2-(2-methyl-1H-indol-3-yl)acetamido)acetamido)-N-(4-methoxyphenyl)-N-methylpropanamide] gave an EC50 [1, 9] of 2.79 ± 0.19 µM, an EC50 [2, 10] greater than 22.6 µM and a CC50 ([3]; human, 5 days) of 22.6 ± 0.96 µM.

For `COc1ccc(N(C)C(=O)[C@H](Cc2cc(F)cc(F)c2)NC(=O)CN(Cc2ccc(C#N)cc2)C(=O)Cc2ccc3ccccc3c2)cc1` [I-13, (S)-2-(2-(N-(4-cyanobenzyl)-2-(naphthalen-2-yl)acetamido)acetamido)-3-(3,5-difluorophenyl)-N-(4-methoxyphenyl)-N-methylpropanamide], the EC50 [1, 9] was greater than 189 µM, the anti-HIV activity [1] was “lost” and the EC50 [2, 10] was 161 ± 26 µM. The CC50 ([3]; human, 5 days) was greater than 189 µM.

With “(S)-2-(2-(2-(5-bromo-2-methyl-1H-indol-3-yl)-N-(4-cyanobenzyl)acetamido)acetamido)-3-(3,5-difluorophenyl)-N-(4-methoxyphenyl)-N-methylpropanamide [I-16]” the EC50 [1] was 5.61 ± 1.18 µM, the EC50 [2, 11] was 15.7 ± 13.3 µM and the CC50 [3] was 87.6 ± 62.2 µM.

For `COc1ccc(N(C)C(=O)[C@H](Cc2cc(F)cc(F)c2)NC(=O)CN(Cc2ccc(F)cc2)C(=O)Cc2ccc(B(O)O)cc2)cc1` [I-23, (S)-(4-(2-((2-((3-(3,5-difluorophenyl)-1-((4-methoxyphenyl)(methyl)amino)-1-oxopropan-2-yl)amino)-2-oxoethyl)(4-fluorobenzyl)amino)-2-oxoethyl)phenyl) boronic acid], the EC50 [1, 9] was 4.33 ± 1.32 µM, the EC50 [2, 10] was 6.8 ± 0.36 µM and the CC50 ([3]; human, 5 days) was 18.9 ± 3.59 µM.

`COc1ccc(N(C)C(=O)[C@H](Cc2cc(F)cc(F)c2)NC(=O)CN(Cc2ccc(C#N)cc2)C(=O)Cc2ccc(B3OC(C)(C)C(C)(C)O3)cc2)cc1` [I-17, (S)-2-(2-(N-(4-cyanobenzyl)-2-(4-(4,4,5,5-tetramethyl-1,3,2-dioxaborolan-2-yl)phenyl)acetamido)acetamido)-3-(3,5-difluorophenyl)-N-(4-methoxyphenyl)-N-methylpropanamide] gave an EC50 [1, 9] of 17.7 ± 4.6 µM, an EC50 [2, 10] of 16.2 ± 4.59 µM and a CC50 ([3]; human, 5 days) of 52.4 ± 14.2 µM.

With `Cc1ccnc2c1NC(=O)c1cccnc1N2C1CC1` [NVP, nevirapine, reference compound] the EC50 [2, 10] was greater than 15 µM, the CC50 ([3]; uninfected MT-4 cells, viability reduced by 50%, MTT method) was greater than 15 µM and the CC50 at 5 days ([4]; mock-infected (uninfected) MT-4 cells, CC50, uninfected MT-4 cells, viability reduced by 50%, MTT method) was greater than 15.2 µM.

For `Cc1[nH]c2ccccc2c1CC(=O)NC(Cc1ccccc1)C(=O)N(C)c1ccccc1` (stereo not shown) [PF-74, reference compound], the EC50 [1, 9] is given as 0.26 ± 0.08 µM, the T1/2 [5] is given as 30 to 78 s and the EC50 [2, 11] is given as 2.22 ± 0.31 µM. The EC50 [2, 10] was greater than 2.22 µM, the EC50 [6] was 0.52 to 0.9 µM and the CC50 at 5 days ([4]; CC50) was 73.8 ± 7.54 µM.

With `COc1ccc(N(C)C(=O)[C@H](Cc2cc(F)cc(F)c2)NC(=O)CN(Cc2ccc(F)cc2)C(=O)Cc2ccc3ccccc3c2)cc1` [I-6, (S)-3-(3,5-difluorophenyl)-2-(2-(N-(4-fluorobenzyl)-2-(naphthalen-2-yl)acetamido)acetamido)-N-(4-methoxyphenyl)-N-methylpropanamide] the EC50 [1, 9] was greater than 160 µM, the anti-HIV activity [1] was “lost” and the EC50 [2, 10] was greater than 160 µM. The CC50 ([3]; human, 5 days) was greater than 160 µM.

In the case of `COc1ccc(N(C)C(=O)[C@H](Cc2cc(F)cc(F)c2)NC(=O)CN(C(=O)Cc2ccc(B3OC(C)(C)C(C)(C)O3)cc2)C2CC2)cc1` [I-18, (S)-2-(2-(N-cyclopropyl-2-(4-(4,4,5,5-tetramethyl-1,3,2-dioxaborolan-2-yl)phenyl)acetamido)acetamido)-3-(3,5-difluorophenyl)-N-(4-methoxyphenyl)-N-methylpropanamide], the EC50 [1, 9] is reported as 5.18 ± 1.11 µM, the EC50 [2, 10] is reported as 9.71 ± 0.8 µM and the CC50 ([3]; human, 5 days) is reported as 89 ± 17.1 µM.

For `COc1ccc(N(C)C(=O)[C@H](Cc2cc(F)cc(F)c2)NC(=O)CN(Cc2ccccc2)C(=O)Cc2ccc3ccccc3c2)cc1` [I-22, (S)-2-(2-(N-benzyl-2-(naphthalen-2-yl)acetamido)acetamido)-3-(3,5-difluorophenyl)-N-(4-methoxyphenyl)-N-methylpropanamide], the EC50 [1, 9] was greater than 176 µM, the EC50 [2, 10] was greater than 18.9 µM and the CC50 ([3]; human, 5 days) was 176 ± 7.35 µM.

With `COc1ccc(N(C)C(=O)[C@H](Cc2cc(F)cc(F)c2)NC(=O)CN(Cc2ccc(C#N)cc2)C(=O)Cc2cccc3ccccc23)cc1` [I-14, (S)-2-(2-(N-(4-cyanobenzyl)-2-(naphthalen-1-yl)acetamido)acetamido)-3-(3,5-difluorophenyl)-N-(4-methoxyphenyl)-N-methylpropanamide] the EC50 [1, 9] was greater than 189 µM, the EC50 [2, 10] was 2.3 ± 0.11 µM and the CC50 ([3]; human, 5 days) was greater than 189 µM.

Work on “(S)-2-(2-(N-(4-cyanobenzyl)-2-(5-fluoro-2-methyl-1H-indol-3-yl)acetamido)acetamido)-3-(3,5-difluorophenyl)-N-(4-methoxyphenyl)-N-methylpropanamide [I-15]” yielded an EC50 [1] of 17.2 ± 9.98 µM, an EC50 [2, 11] of 5.81 ± 1.11 µM and a CC50 [3] of 148 ± 16.6 µM.

For `COc1ccc(N(C)C(=O)[C@H](Cc2cc(F)cc(F)c2)NC(=O)CN(Cc2ccc(F)cc2)C(=O)Cn2nc(C(F)(F)F)c3c2CCCC3)cc1` [I-19, (S)-3-(3,5-difluorophenyl)-2-(2-(N-(4-fluorobenzyl)-2-(3-(trifluoromethyl)-4,5,6,7-tetrahydro-1H-indazol-1-yl)acetamido)acetamido)-N-(4-methoxyphenyl)-N-methylpropanamide], the “Koff Hexamer” value ([7]; 1:1 binding model) was 0.00758 ± 0.000504 S^−1, the “Kon Hexamer” value ([7]; 1:1 binding model) was 628 ± 152 M^−1S^−1 and the Kd ([7]; 25 °C, at least 3 replicates) was 36.9 µM. The EC50 [1, 9] was 2.53 ± 0.84 µM, the EC50 [2, 10] was 12.9 ± 3.72 µM and the “Ratio KD (monomer)/KD(hexamer)” value [8] was 0.36. The “Koff Monomer” value ([8]; 1:1 binding model) was 0.0301 ± 0.0172 S^−1, the “Kon Monomer” value ([8]; 1:1 binding model) was 4160 ± 1670 M^−1S^−1 and the Kd ([8]; 25 °C, at least 3 replicates) was 13.3 µM. The melting point was 46 to 48 °C and the CC50 at 5 days ([4]; CC50) was 108 ± 27.4 µM.

`COc1ccc(N(C)C(=O)[C@H](Cc2cc(F)cc(F)c2)NC(=O)CN(CC2CCCCC2)C(=O)Cc2c[nH]c3ccc(Br)cc23)cc1` [I-10, (S)-2-(2-(2-(5-bromo-1H-indol-3-yl)-N-(cyclohexylmethyl)acetamido)acetamido)-3-(3,5-difluorophenyl)-N-(4-methoxyphenyl)-N-methylpropanamide] gave an EC50 [1, 9] greater than 17.6 µM, an EC50 [2, 10] greater than 17.6 µM and a CC50 ([3]; human, 5 days) of 17.6 ± 2.41 µM.

`COc1ccc(N(C)C(=O)[C@H](Cc2cc(F)cc(F)c2)NC(=O)CN(Cc2ccc(F)cc2)C(=O)Cc2c[nH]c3ccc(Br)cc23)cc1` [I-9, (S)-2-(2-(2-(5-bromo-1H-indol-3-yl)-N-(4-fluorobenzyl)acetamido)acetamido)-3-(3,5-difluorophenyl)-N-(4-methoxyphenyl)-N-methylpropanamide] gave an EC50 [1, 9] of 2.93 ± 0.32 µM, an EC50 [2, 10] greater than 17.8 µM and a CC50 ([3]; human, 5 days) of 17.8 ± 1.04 µM.

Compound `COc1ccc(N(C)C(=O)[C@H](Cc2cc(F)cc(F)c2)NC(=O)CN(Cc2ccc(F)cc2)C(=O)Cc2ccc(B3OC(C)(C)C(C)(C)O3)cc2)cc1` [I-12, (S)-3-(3,5-difluorophenyl)-2-(2-(N-(4-fluorobenzyl)-2-(4-(4,4,5,5-tetramethyl-1,3,2-dioxaborolan-2-yl)phenyl)acetamido)acetamido)-N-(4-methoxyphenyl)-N-methylpropanamide] has an EC50 [1, 9] of 11.7 ± 2.07 µM, an EC50 [2, 10] of 13.2 ± 2.6 µM and a CC50 ([3]; human, 5 days) of 65.4 ± 16.8 µM.
